# Measured values from patent US20220387472A1, “COMPOSITIONS AND METHODS FOR TREATING CANCER” (AIM ImmunoTech Inc., priority 2020, published 2022).
# Where “and” joins values, the source holds several entries; their conditions need not be identical. Equal entries are not always repeated. Where two headings read alike, the source gives them in different places.
# How the values were obtained:
# [1] = test system: Pancreatic Adenocarcinoma; conditions: cited from earlier work
# [2] = cynomolgus monkey, in vivo, 6 mg/kg
# Procedure: (§1) Ampligen® has undergone extensive preclinical safety testing including 18 animal (mice, rat, rabbit, dog, and monkey) toxicity studies; 6 animal (rat and rabbit) reproductive studies, and 2 animal (rat, monkey) PK/PD studies. The MTD for humans and NHPs is >10 mg/kg and >36 mg/kg, respectively.
# [3] = Maximum tolerated dose (MTD) in humans; type: in vivo
# Procedure: as §1
# [4] = parameters: species or system Humans; conditions: human, in vivo, 6 mg/kg
# Procedure: as §1
# [5] = Maximum tolerated dose (MTD) in NHP; type: in vivo; conditions: NHP (Cynomolgus monkey)
# Procedure: as §1
# [6] = Clinical safety and tolerability of tdsRNA (rintatolimod); type: in vivo, human; conditions: for Tolerability: twice weekly infusions
# Text: tdsRNA (e.g., Rintatolimod) has undergone extensive clinical and preclinical testing. […] Favorable safety profiles have been seen for intraperitoneal, intravenous, and intranasal routes of administration of tdsRNA.
# Our analysis and previous studies have shown that […]® has a very good safety profile. […]® lacks the potent toxicities seen with most chemotherapeutic agents. See, e.g., […]®'s safety profile in other parts of this disclosure. […] Thus, we believe the ideal use of […]® would be to continue therapy beyond 18 weeks until time of tumor progression. We believe this approach could add an additional 4 to 6 months or more to the overall survival (OS) benefit.
# [7] = test system: metastatic or locally advanced pancreatic carcinoma; experiment: Survival of pancreatic cancer patients given […] following FOLFIRINOX vs matched historical control group; type: in vivo, human; conditions: n = 27 per group, from start of FOLFIRINOX, control: FOLFIRINOX only (historical); for Median Overall Survival: AMPLIGEN i.v. 200 mg twice weekly for 2 weeks, then 400 mg twice weekly, 18 weeks total, following FOLFIRINOX
# Procedure: In this case, the tdsRNA used is rintatolimod ([…]®) which is a form of tdsRNA. Included in the study were adults with metastatic or locally advanced pancreatic carcinoma following FOLFIRINOX treatment. The tdsRNA treatment was rintatolimod ([…]®) administered i.v. 200 mg twice weekly for 2 weeks, then 400 mg twice weekly for a total treatment duration of 18 weeks.
# The experiment compared survival in the experimental […]® cohort (n=27) compared to a historical control group (n=27) matched for age, gender, disease stage and number of cycles of FOLFIRINOX.
# To be selected for the study, the patient should be over 18 years in age and diagnosed with locally advanced pancreatic cancer (LAPC) or metastasized pancreatic cancer. These LACP patients were not candidates for surgical resection. The patient should have completed the standard of care (e.g., A FOLFIRINOX regimen) and the patient should have no progressive disease (as detected by computed tomography (CT) 6 weeks after treatment). Patients with second malignancy (simultaneous), on immunosuppressive medication, or having liver-renal insufficiency were excluded.
# Survival analysis was performed as follows. A group of 136 patients was assembled from a retrospective database, including all patients who received FOLFIRINOX between 2012-2018. Variables that were matched include age (+ or −10 years); gender; disease stage (locally advanced pancreatic cancer (LAPC), metastasized, metastasized after resection); and the number of FOLFIRINOX cycles to obtain a historical control group that was well-matched to the experimental group. The outcomes were determined from the start of FOLFIRINOX, and the overall survival and progression-free survival were calculated.
# [8] = clinical trials enrolling over 1,200 patients, over 100,000 doses
molecule,measurement,setting,value
O=C(c1cc(Cc2n[nH]c(=O)c3ccccc23)ccc1F)N1CCN(C(=O)C2CC2)CC1 [Lynparza],OS Over Control,"[1]; Second-Line Therapy, median OS over the control arm",3.6 months
Nc1ccn([C@@H]2O[C@H](CO)[C@@H](O)C2(F)F)c(=O)n1 [gemcitabine],OS Months,"[1]; First-Line Therapy, median overall survival",6.7 Months and 6.0 Months and 6.8 Months
rIn.r(C12U)n,Half-Life,[2],22.9 min
same,MTD,[3]; based on 1200 mg BIW (cancer),17 mg/kg
same,MTD,"[3]; based on randomized, well-controlled 24 week study in HIV disease",> 10 mg/kg
same,Half-Life,[4],36.5 min
same,MTD,[5]; based on 4 weeks,100 mg/kg
same,MTD,[5]; based on 24 weeks,> 36 mg/kg
same,Drug-related deaths,[6]; [8],no drug-related deaths
same,Tolerability,[6]; [8],generally well-tolerated
same,Tolerability,"[6]; clinical trials enrolling over 1,200 patients, over 100,000 doses, listed as Ampligen",generally well-tolerated
same,Tolerability,"[6]; clinical trials enrolling over 1,200 patients, over 100,000 doses, listed as Rintatolimod",well-tolerated
same,Cumulative toxicities,"[6]; human, in vivo",no evidence of any cumulative toxicities
same,Serious adverse events compared to placebo,"[6]; two placebo-controlled, randomized studies",no increase in serious adverse events compared to placebo
same,Median Progression-free Survival,[7]; AMPLIGEN following FOLFIRINOX,12.0 months
same,Median Overall Survival,[7],19.0 months and 19 months
same,Median Overall Survival,[7]; listed as Ampligen,19 months
